According to paper PMC5699961 (Clinical pharmacokinetics, 2018):
Like-named read-outs stand apart in the source and are kept apart here.

Assays:
[1] = test system: healthy subjects; assay: Exposure-safety analysis; assay type: in vivo, human
[2] = test system: patients with solid tumors; conditions: cited from earlier work
[3] = test system: swine subjected to hemorrhage and polytrauma; conditions: intravenous VPA, absence of isotonic fluid resuscitation; cited from earlier work
[4] = test system: blood brain barrier; conditions: swine subjected to TBI and hemorrhagic shock; cited from earlier work
[5] = 140 mg/kg dose, oral dosing; cited from earlier work
[6] = Single-dose plasma pharmacokinetics of intravenous VPA; conditions: for concentration at 24 h / AUC / AUC(0-inf) / Cmax / half-life: human, plasma; for concentration at 24 h: intravenous; for AUC / AUC(0-inf) / Cmax / half-life: iv
[7] = 2-Compartment population model (final model), mean (SD)
[8] = 3-Compartment population model, mean (SD)

CCCC(CCC)C(=O)O [VPA, valproic acid]
Dose breakpoint for occurrence of adverse events ([1]; Chills): > 6597 mg | Dose breakpoint for occurrence of adverse events ([1]; Hearing adverse events): > 3222 mg | Maximum tolerated dose (MTD) ([2]; cancer patients, intravenous, daily for five days): 60 mg/kg/day | Previously established maximum tolerated single intravenous dose ([2]; ref 21): 60 mg/kg | Previously established maximum intravenous dose ([2]; ref 22): 75 mg | Previously established maximum tolerated single intravenous dose ([2]; ref 22): 75 mg/kg | Decrease in mortality [3]: 50% | Expression of tight-junction and basement membrane associated proteins (zona occludin-1, laminin, claudin-5) [4]: increased expression | Peak plasma concentrations [5]: 300 to 400 µg/mL | Q1, intercompartmental clearance between central and first peripheral compartment [6, 7]: 0.64 (0.32) L/h | Vc, volume of distribution of the central compartment [6, 7]: 11.1 (2.62) L | Vp1, volume of distribution of the first peripheral compartment [6, 7]: 7.70 (3.28) L | Q1, intercompartmental clearance between central and first peripheral compartment [6, 8]: 0.62 (0.29) L/h | Q2, intercompartmental clearance between central and second peripheral compartment [6, 8]: 3.48(1.47) L/h | Vp1, volume of distribution of the first peripheral compartment [6, 8]: 7.63 (3.29) L | Vp2, volume of distribution of the second peripheral compartment [6, 8]: 0.32(0.06) L | concentration at 24 h ([6]; 15 mg/kg): 22.6 µg/mL | concentration at 24 h ([6]; 30 mg/kg): 39.5 µg/mL | concentration at 24 h ([6]; 60 mg/kg): 39.8 µg/mL | concentration at 24 h ([6]; 90 mg/kg): 56.9 µg/mL | concentration at 24 h ([6]; 120 mg/kg): 49.7 µg/mL | concentration at 24 h ([6]; 130 mg/kg): 97.2 µg/mL | concentration at 24 h ([6]; 140 mg/kg): 140 µg/mL | concentration at 24 h ([6]; 150 mg/kg): 81.4 µg/mL | AUC ([6]; 15 mg/kg): 1180 µg·h/mL | AUC(0-inf) ([6]; 15 mg/kg): 1710 µg·h/mL | Cmax ([6]; 15 mg/kg): 112 µg/mL | half-life ([6]; 15 mg/kg): 12.1 h | AUC ([6]; 30 mg/kg): 2200 µg·h/mL | AUC(0-inf) ([6]; 30 mg/kg): 3390 µg·h/mL | Cmax ([6]; 30 mg/kg): 235 µg/mL | half-life ([6]; 30 mg/kg): 12.1 h | AUC ([6]; 60 mg/kg): 2240 µg·h/mL | AUC(0-inf) ([6]; 60 mg/kg): 3040 µg·h/mL | Cmax ([6]; 60 mg/kg): 248 µg/mL | half-life ([6]; 60 mg/kg): 11.3 h | AUC ([6]; 90 mg/kg): 4630 µg·h/mL | AUC(0-inf) ([6]; 90 mg/kg): 5810 µg·h/mL | Cmax ([6]; 90 mg/kg): 541 µg/mL | half-life ([6]; 90 mg/kg): 8.9 h | AUC ([6]; 120 mg/kg): 3840 µg·h/mL | AUC(0-inf) ([6]; 120 mg/kg): 4980 µg·h/mL | Cmax ([6]; 120 mg/kg): 537 µg/mL | half-life ([6]; 120 mg/kg): 9 h | AUC ([6]; 130 mg/kg): 7740 µg·h/mL | AUC(0-inf) ([6]; 130 mg/kg): 11300 µg·h/mL | Cmax ([6]; 130 mg/kg): 855 µg/mL | half-life ([6]; 130 mg/kg): 8.8 h | AUC ([6]; 140 mg/kg): 9870 µg·h/mL | AUC(0-inf) ([6]; 140 mg/kg): 13500 µg·h/mL | Cmax ([6]; 140 mg/kg): 1270 µg/mL | half-life ([6]; 140 mg/kg): 9.7 h | AUC ([6]; 150 mg/kg): 6910 µg·h/mL | AUC(0-inf) ([6]; 150 mg/kg): 8520 µg·h/mL | Cmax ([6]; 150 mg/kg): 694 µg/mL | half-life ([6]; 150 mg/kg): 7.9 h
